{"source": "patent US8163731B2", "about": "“Method and dosage regimens for eliminating a chemical substance in blood” (Rhodes Technologies, priority 2008, dated 2012)", "key": {"smoking cessation": {"system": "smoking cessation", "conditions": "very large reduction steps; cited from earlier work"}, "[1]": {"system": "opiate blocker; withdrawal symptoms", "test": "Naltrexone given after the end of buprenorphine treatment (precipitated withdrawal)", "protocol": "Since naltrexone is administered following the cessation of narcotic, there can be no residual narcotic in a patient's system, otherwise the naltrexone will push the patient into withdrawal. Therefore, the patient must wait about a week before to start naltrexone, even with extremely low doses, doses that may be considered to be homeopathic but are high enough to cause withdrawal symptoms if the narcotic is not fully washed out."}, "[2]": {"system": "physical dependence to opioids and related substances", "test": "Multidose tapering of buprenorphine in opiate-dependent patients (cessation success, withdrawal symptoms)", "type": "in vivo", "conditions": "for Successful, percent of total patients: calculated blood level reduction no greater than 5% from previous period", "text": "After several years of clinical experience in the use of buprenorphine, it became clear that a single dose in mg of buprenorphine given over a short period of time would not lead to a drug-free status. […]. If the dose is reduced rapidly, the patient reacts with both physical and emotional symptoms of withdrawal. By reducing the dose slowly, the patients experience a period where there is little or no decline in biologically available narcotic and thus feel more secure as they are not experiencing even minor withdrawal symptoms.\nCommercially available buprenorphine (Suboxone® & Subutex®) is available in strengths of 8.0 mg as well as 2.0 mg. However, that these medications would not suffice for a successful program, because the 2.0 mg dose was too large and too steep cut-off. […]. During inception of development of multidose treatment that led to the current invention, and using the then current state of art, buprenorphine troches for the treatment (not maintenance) of opiate dependence was used on a patient that was a person who was using I.V. 5-8 bags of heroin daily. They were started on 3 mg of buprenorphine and remained on this dose for three days. After a two day period without opiates, an attempt was made to administer the opiate blocker naltrexone which was intended to assure that a person is indeed drug free and remained so.\nMany alterations in treatment protocols to prevent withdrawal were made. The alterations included a greater variety of doses ranging from 8.0 to 4.0 mg administered in a deceasing amount over time. At first the dose strengths varied from 8.0 mg administered once daily with a daily reduction of 2.0 mg until to 4.0 mg, and then to 2.0 mg.\nA 6.0 mg dose was then added to the protocol. This lengthened the withdrawal period from three days to seven. This change was occasioned by the observation that the drop from 8.0 mg to 4.0 mg was all too frequently accompanied by a significant return of withdrawal symptoms and, at times, a return to use.\nDespite these alterations in the treatment protocol the results were still not what were expected. The observation was made that a cut-off of 2.0 mg would cause a return of withdrawal symptoms within 24 hrs and thus the likelihood of a return to drug use before naltrexone could be started. […] As a result, a 1.0 mg lozenges were administered\nA fractional buprenorphine dose was administered to reduce the severity of withdrawal symptoms. This strategy was in response to ongoing withdrawal symptoms following the “conclusion” of withdrawal or a “final” 3.0 mg dose of buprenorphine. To mitigate the withdrawal symptoms, a dose of 1.5 mg of buprenorphine was given to the patient. This particular treatment was unsuccessful as the ongoing withdrawal symptoms were too difficult for the patient who relapsed as a result.\nStepwise increments were amended to proceed in the sub 1.0 mg dose range. The taper at this time was 1.0 mg, 0.75 mg, 0.5 mg, to 0.25 mg then a four day period of blank troches followed by an upward taper of troches with naltrexone going from 0.5 mg of naltrexone to 10.0 mg of naltrexone. With serial doses of 0.25 mg of buprenorphine many patients continued to report perceptible and, in some cases, intolerable withdrawal symptoms.\nAs a result of the ongoing objective patient observations and patient's subjective complaints of withdrawal symptoms, a 0.1 mg dose was introduced. Additionally, a dose of 1.5 mg as well as a dose of 0.75 mg was added to the dose progression series. Although withdrawal complaints were limited, they were still present, and generally in the late phases of treatment. […] A strategy of 0.1 mg decreases in dose was implemented when the patients reached the 4.0 mg dose range (i.e., 2.0 mg twice a day) and 0.01 mg deceases in the below 1.0 mg range. The effect of this change also to extended the withdrawal period to about six to eight weeks from four weeks. […]"}}}
{"compound": "CN1CCCC1c1cccnc1", "note": "(stereo not shown) [nicotine]", "values": [{"measurement": "clinical success rates over placebo", "setting": "smoking cessation", "value": "6-12%"}]}
{"compound": "O=C1CC[C@@]2(O)[C@H]3Cc4ccc(O)c5c4[C@@]2(CCN3CC2CC2)[C@H]1O5", "note": "[naltrexone]", "values": [{"measurement": "withdrawal symptoms caused by naltrexone", "setting": "[1]; 12.5 mg, up to five days after the end of buprenorphine treatment", "value": "causes a return of withdrawal symptoms"}, {"measurement": "withdrawal symptoms caused by naltrexone", "setting": "[1]; given after a two day period without opiates following 3 mg buprenorphine for three days", "value": "severe withdrawal symptoms"}]}
{"compound": "buprenorphine hydrochloride", "values": [{"measurement": "Successful, percent of total patients", "setting": "[2]; 1-30 treatment days", "value": 50.7, "unit": "%"}, {"measurement": "Successful, number of patients", "setting": "[2]; 1-30 treatment days, total 75", "value": 38}, {"measurement": "Successful, percent of total patients", "setting": "[2]; 31-60 treatment days", "value": 75.0, "unit": "%"}, {"measurement": "Successful, number of patients", "setting": "[2]; 31-60 treatment days, total 52", "value": 39}, {"measurement": "Successful, percent of total patients", "setting": "[2]; 61-90 treatment days", "value": 90.5, "unit": "%"}, {"measurement": "Successful, number of patients", "setting": "[2]; 61-90 treatment days, total 21", "value": 19}, {"measurement": "success rates in achieving freedom from physical dependence to opioids and related substances", "setting": "[2]; specific gradually decreasing but measured doses of replacement narcotic", "value": "≥ 90", "unit": "%"}]}
